The values below come from ChEMBL document CHEMBL1135204, “Synthesis and muscarinic M2 subtype antagonistic activity of unnatural ent-himbacine and an enantiomeric pair of (2'S,6'R)-diepihimbacine” (Bioorg Med Chem Lett, 2002).

Experiment [1] concerns the target T1, Muscarinic acetylcholine receptor M2 (Rattus norvegicus, UniProt P10980).
T1 sequence (P10980 whole entry): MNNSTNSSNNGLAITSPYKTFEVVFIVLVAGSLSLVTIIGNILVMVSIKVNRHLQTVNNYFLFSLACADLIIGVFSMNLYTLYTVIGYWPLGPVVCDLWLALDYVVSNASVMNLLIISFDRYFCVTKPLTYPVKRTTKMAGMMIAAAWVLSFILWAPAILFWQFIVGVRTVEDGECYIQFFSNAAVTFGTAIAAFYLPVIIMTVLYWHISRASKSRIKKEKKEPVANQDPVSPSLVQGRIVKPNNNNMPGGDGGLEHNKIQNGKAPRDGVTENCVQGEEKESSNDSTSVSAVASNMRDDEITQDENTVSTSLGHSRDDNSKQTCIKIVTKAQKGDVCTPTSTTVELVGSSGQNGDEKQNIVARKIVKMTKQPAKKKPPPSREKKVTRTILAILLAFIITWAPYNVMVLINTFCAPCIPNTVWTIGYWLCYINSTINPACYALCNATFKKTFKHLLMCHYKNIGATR
In words: Binding affinity against the muscarinic M2 (brainstem) subtype was evaluated using [3H]quinuclidinyl benzilate. It is filed as tissue-based.

In experiment [2] the target is T2, Muscarinic acetylcholine receptor M1 (Rattus norvegicus, UniProt P08482).
T2 sequence (P08482 whole entry): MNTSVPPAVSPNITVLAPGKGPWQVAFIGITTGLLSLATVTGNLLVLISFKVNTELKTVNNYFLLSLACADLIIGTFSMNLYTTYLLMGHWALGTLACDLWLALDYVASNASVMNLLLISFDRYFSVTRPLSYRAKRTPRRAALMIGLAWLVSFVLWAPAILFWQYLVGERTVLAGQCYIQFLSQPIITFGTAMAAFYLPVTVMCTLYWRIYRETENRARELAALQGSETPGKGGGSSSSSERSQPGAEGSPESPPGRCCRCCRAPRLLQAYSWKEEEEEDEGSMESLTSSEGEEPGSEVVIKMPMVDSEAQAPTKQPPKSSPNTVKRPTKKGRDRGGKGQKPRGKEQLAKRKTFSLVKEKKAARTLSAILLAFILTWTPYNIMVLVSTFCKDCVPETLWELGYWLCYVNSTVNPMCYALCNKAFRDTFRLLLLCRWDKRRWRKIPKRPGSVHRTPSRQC
In words: Binding affinity against the muscarinic M1 (cortex) subtype was evaluated using [3H]pirenzepine.

Usually Ki stands for the dissociation constant of the complex between target and ligand, obtained from inhibition or displacement. A higher Ki goes with a looser hold on the target. For the compound `C[C@@H]1OC(=O)[C@H]2C[C@H]3CCCC[C@@H]3[C@@H](/C=C/[C@@H]3CCC[C@@H](C)N3C)[C@@H]12`, the Ki in experiment [1] was 200 nM; in experiment [2], 316 nM.

As for `C[C@H]1OC(=O)[C@@H]2C[C@@H]3CCCC[C@H]3[C@H](/C=C/[C@H]3CCC[C@H](C)N3C)[C@H]12`, the Ki in experiment [1] is 200 nM; in experiment [2], 316 nM.

Consider `C[C@@H]1CCC[C@@H](/C=C/[C@H]2[C@@H]3CCCC[C@H]3C[C@H]3C(=O)O[C@H](C)[C@@H]23)N1C` (single isomer, unassigned; ent-1), for which the inhibitory constant (Ki) was 794 nM in experiment [1] and 1000 nM in experiment [2].

For `C[C@@H]1OC(=O)[C@H]2C[C@H]3CCCC[C@@H]3[C@@H](/C=C/[C@H]3CCC[C@H](C)N3C)[C@@H]12` [HIMBACINE], the Ki is 10 nM in experiment [1] and 63.1 nM in experiment [2].
